The values that follow are results of earlier work, collected in patent US8158685B2, “Method for bone growth” (priority 2004, dated 2012).

For one data set, the system named is spine. Conditions: immediate-release form, 75 mg/day with calcium carbonate over 4 years.
Another data set concerns bone graft. Conditions: fluoride alone added to bone graft material.

On to `[F-].[Na+]` [sodium fluoride], for which, in the data set with spine, the bone density increase is recorded as 35% and the “effect on spinal fractures” value is “failed to reduce spinal fractures”.

With `F` [fluoride], in the data set on bone graft, the “improvement/increase in bone density” value is given as 20%.
